Data as given in US8937056B2, “Multikinase inhibitors for use in the treatment of cancer” (Eisai R&D Management Co., Ltd., priority 2007, dated 2015).

Columns and labels:
[1] = molecular target: Fyn (Homo sapiens, UniProt P06241); experiment: Kinase inhibition, full range of concentrations; type: biochemical; settings: 10 μM ATP, duplicate measurements
Protocol: (§1) In a final reaction volume of 25 μL, each human enzyme was incubated with appropriate buffer. The reaction was initiated by the addition of the MgATP mix with [γ^33P-ATP]. After incubation for 40 minutes at room temperature, the reaction was stopped by the addition of 5 μL of a phosphoric acid solution. All assays were performed at an ATP concentration of 10 μM.
(§2) 10 μL of the reaction was spotted onto a P30 filtermat and washed three times for 5 minutes in a phosphoric acid solution. ^33P transferred to a substrate peptide was then determined by scintillation counting. The results were expressed as a percentage of that in control incubations.
(§3) Furthermore, inhibitory activities of the compounds were confirmed against six of these kinases with a full range of concentrations. Three cytoplasmic Src family kinases were studied: c-Src, Fyn and Lyn. We also studied cytoplasmic Abl kinase and two receptor tyrosine kinases: Flt3, and TrkB. A standard ATP concentration of 10 μM was used in all reactions. All experiments were conducted with duplicate measurements. […] TrkB and members of the Src family were the most sensitive enzymes to Compound 091 inhibition.

[2] = molecular target: Abl kinase (Homo sapiens, UniProt P00519); experiment: Kinase inhibition, full range of concentrations; type: biochemical; settings: 10 μM ATP, duplicate measurements
Protocol: as §1, §2, §3

[3] = test system: human hematologic cancer cell lines; experiment: Antiproliferative effects in hematologic cancer cell lines (MTT assay); type: cell-based; settings: two cell lines derived from B-cell non-Hodgkin's lymphoma, 96 h
Protocol: A study was carried out to investigate anticancer activity of compounds 091 and 106 in a panel of human hematologic cancer cell lines in vitro. Antiproliferative effects of compounds 091 and 106 were evaluated in 7 human cancer cell lines representing several different cancer types of hematologic malignancy. […] Cell growth was assessed using the MTT assay.

[4] = test system: LOX human melanoma xenografts; experiment: In vivo antitumor activity in LOX xenografts; design: species or system mice
Protocol: A study was carried out to investigate anticancer activity of compounds 091 and 106 in human LOX BRAF mutated melanoma xenografts. The compounds were evaluated against subcutaneous-implanted LOX human melanoma xenografts in female athymic mice.
(§4) The human melanoma cell line, LOX which has B-RAF (V600E) mutation was transplanted subcutaneously into female nude mice. The experiment consisted of 8 mice per group on the first day of treatment. Compounds were independently administered intravenously for two weekly rounds of five daily injections (q1d×5) with a two-day rest period between the rounds. Compounds were administered in a vehicle volume of 0.1 mL/10 g of body weight.
(§5) The general health of the mice was monitored daily. Tumor dimensions and body weights were recorded twice a week starting on the first day of treatment. Tumor weights were calculated using the equation (l×w^2)/2, where 1 and w refer to the larger and smaller dimensions collected at each measurement. When the mean tumor volume reached 128 mm^3, vehicle (cremophor:ethanol:5% glucose; 1:1:8) or one of the test compounds (10, 20, 30, or 40 mg/kg) was administered to mice (8/group).

[5] = test system: Colo205 human colon cancer xenografts; experiment: In vivo antitumor activity in Colo205 xenografts; design: species or system mice; settings: 30 mg/kg i.v., two weekly rounds of q1d×5
Protocol: A study was carried out to investigate anticancer activity of compounds 091 and 106 in human Colo205 BRAF mutated colon cancer xenografts. The compounds were evaluated against subcutaneous-implanted Colo205 human colon cancer xenografts in female athymic mice.
as §4, with “colon cancer” for “melanoma”, “Colo205” for “LOX”, “6” for “8”, “The compound was” for “Compounds were independently”, “Compound 091 was” for “Compounds were”
as §5, with “140” for “128”, “or” for “or one of”, “compound (30” for “compounds (10, 20, 30, or 40”, “(6/group).” for “(8/group).”

[6] = test system: PANC-1 pancreatic cancer cells; experiment: PANC-1 cell growth, alone or in combination with SN-38 (CellTiter-Glo)
Protocol: To determine whether compounds 091 or 106 in combination with SN-38 would enhance the anticancer activity of chemotherapy due to MEKK1 inhibition, PANC-1 human pancreatic cancer cells were examined.
Antiproliferative effects of SN-38 were evaluated in PANC-1 pancreatic cancer cells in combination with compound 091 or 106. Cultured human cancer cells were placed into 96-well plates and grown in the absence or continuous presence of 0.03-1000 nM SN-38 for 96 h with or without 1 μM of test compound. Cell growth was assessed using CellTiter-Glo® Luminescent Cell Viability Assay (Promega). IC50 values were determined as the concentration of a substance which inhibits cell growth by 50% compared to untreated cell populations.

Sequence of Fyn (P06241 whole entry): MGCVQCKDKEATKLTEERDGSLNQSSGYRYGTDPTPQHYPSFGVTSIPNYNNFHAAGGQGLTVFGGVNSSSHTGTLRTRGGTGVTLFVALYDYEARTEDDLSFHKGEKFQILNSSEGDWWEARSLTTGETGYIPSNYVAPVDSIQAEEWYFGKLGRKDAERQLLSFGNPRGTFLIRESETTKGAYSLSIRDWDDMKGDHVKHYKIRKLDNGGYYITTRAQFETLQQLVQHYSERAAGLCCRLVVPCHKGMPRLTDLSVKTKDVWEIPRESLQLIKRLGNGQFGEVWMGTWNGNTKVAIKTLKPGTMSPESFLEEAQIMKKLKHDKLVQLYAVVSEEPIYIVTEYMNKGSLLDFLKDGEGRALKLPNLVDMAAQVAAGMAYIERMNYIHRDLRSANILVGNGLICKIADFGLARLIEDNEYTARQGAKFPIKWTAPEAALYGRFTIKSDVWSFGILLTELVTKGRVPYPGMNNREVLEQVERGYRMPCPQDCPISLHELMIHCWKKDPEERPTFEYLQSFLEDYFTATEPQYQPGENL
Sequence of Abl kinase (P00519 whole entry): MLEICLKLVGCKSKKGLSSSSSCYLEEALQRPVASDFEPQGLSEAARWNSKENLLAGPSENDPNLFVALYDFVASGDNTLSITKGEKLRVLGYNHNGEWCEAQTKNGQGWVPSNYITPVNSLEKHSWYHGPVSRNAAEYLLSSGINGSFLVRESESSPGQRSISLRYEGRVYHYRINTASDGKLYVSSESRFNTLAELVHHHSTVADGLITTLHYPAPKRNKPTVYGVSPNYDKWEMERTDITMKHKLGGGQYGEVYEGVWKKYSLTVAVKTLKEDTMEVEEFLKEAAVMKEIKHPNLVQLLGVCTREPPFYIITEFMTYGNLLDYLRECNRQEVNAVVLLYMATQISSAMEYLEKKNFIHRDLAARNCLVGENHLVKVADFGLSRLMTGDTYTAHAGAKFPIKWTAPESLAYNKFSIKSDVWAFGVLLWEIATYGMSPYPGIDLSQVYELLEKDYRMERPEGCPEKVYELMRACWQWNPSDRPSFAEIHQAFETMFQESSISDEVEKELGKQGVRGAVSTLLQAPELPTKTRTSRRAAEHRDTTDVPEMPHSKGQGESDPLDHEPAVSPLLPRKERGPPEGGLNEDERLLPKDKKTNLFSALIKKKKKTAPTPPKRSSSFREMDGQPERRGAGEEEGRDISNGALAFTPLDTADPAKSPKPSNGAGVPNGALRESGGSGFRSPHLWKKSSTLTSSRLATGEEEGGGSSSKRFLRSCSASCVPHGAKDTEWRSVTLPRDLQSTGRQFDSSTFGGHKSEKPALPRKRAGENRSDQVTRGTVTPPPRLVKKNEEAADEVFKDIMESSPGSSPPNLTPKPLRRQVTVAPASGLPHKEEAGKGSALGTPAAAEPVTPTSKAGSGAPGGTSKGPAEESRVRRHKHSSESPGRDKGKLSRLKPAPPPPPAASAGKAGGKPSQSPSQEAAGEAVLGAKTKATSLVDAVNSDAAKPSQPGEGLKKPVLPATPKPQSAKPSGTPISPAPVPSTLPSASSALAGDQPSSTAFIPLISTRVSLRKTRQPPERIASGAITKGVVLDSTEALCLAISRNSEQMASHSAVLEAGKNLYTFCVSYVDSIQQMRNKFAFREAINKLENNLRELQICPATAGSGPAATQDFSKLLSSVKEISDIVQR

## CNc1cc(O)c2c(c1)/C=C/C[C@H](O)[C@H](O)C(=O)/C=C\[C@@H](C)[C@H](C)OC2=O [Compound 091]
[1]
  IC50: < 214 nM
[2]
  IC50: < 214 nM
[3]
  sensitivity of cell growth: sensitive
[4]; 10 mg/kg i.v., for the first three weeks
  tumor regression: 100%
[4]; 20 mg/kg i.v., in all mice
  tumor regression: 100%
[4]; 30 mg/kg i.v., in all mice
  tumor regression: 100%
[4]; 40 mg/kg i.v., in all mice
  tumor regression: 100%
[4]; mice given 091
  tumor status of mice at the end of the study: tumor free
[5]
  tumor regression: ~70%
[6]; 1 μM alone, separate experiments (data not shown)
  effect on PANC-1 cancer cell growth, compound alone: did not affect
[6]; 1 μM test compound in combination with SN-38
  effect on cytotoxicity of SN-38: enhanced
